Non-standard residues stand in square brackets, D forms with d. Residues, ends and D or L forms follow the SMILES beside them. *: point of attachment. Met(O2) = CS(=O)(=O)CC[C@H](N)C(=O)O; Cha = N[C@@H](CC1CCCCC1)C(=O)O; Tle = CC(C)(C)[C@H](N)C(=O)O; Nva = CCC[C@H](N)C(=O)O; Cbz = O=C(OCc1ccccc1)*; Boc = CC(C)(C)OC(=O)*
Assays:
[1] = target: T1, SARS-CoV-2 M^pro (Severe acute respiratory syndrome coronavirus 2, UniProt P0DTD1); experiment: FRET-based enzymatic assay for SARS-CoV-2 main protease; type: biochemical; conditions: for inhibition at 20 µM: read-out: inhibition against M^pro in primary screening
[2] = target: T1, SARS-CoV-2 M^pro; type: binding; conditions: 30 μM compound; for 2019-nCoV 3CL TSA Tm: melting temperature with compound, DMSO 55.74; for 2019-nCoV 3CL TSA ΔTm: shift vs DMSO

In the case of `CSCC[C@@H](C=O)NC(=O)[C@H](CC(C)C)NC(=O)[C@H](Cc1ccccc1)NC(C)=O` [Jun9-2-5] (Ac-Phe-Leu-Met-aldehyde), the IC50 [1] is reported as 270 nM.
With `CSCC[C@@H](C=O)NC(=O)[C@H](CC(C)C)NC(C)=O` [Jun8-102-1] (Ac-Leu-Met-aldehyde) the IC50 [1] was 4770 nM.
`CSCC[C@@H](C=O)NC(=O)[C@H](CC(C)C)NC(=O)OC(C)(C)C` [Jun9-2-3] (Boc-Leu-Met-aldehyde) was tested, and the IC50 [1] was greater than 20000 nM.
`CCCC[C@@H](C=O)NC(=O)[C@H](CC(C)C)NC(=O)OCc1ccccc1` [Calpeptin (56), Calpeptin] was tested, and the “2019-nCoV 3CL TSA Tm” value [2] was 56.84 ± 0.00 °C and the “2019-nCoV 3CL TSA ΔTm” value [2] was 1.1 °C.
`CC(C)[C@H](NC(=O)OCc1ccccc1)C(=O)N[C@H](C=O)Cc1ccccc1` [calpain inhibitor III (MDL28170) (57), calpain inhibitor III] (Cbz-Val-Phe-aldehyde) was tested, and the “2019-nCoV 3CL TSA Tm” value [2] was 55.36 ± 0.14 °C, the “2019-nCoV 3CL TSA ΔTm” value [2] was −0.38 °C and the IC50 [1] was greater than 20000 nM.
`CSCC[C@H](NC(=O)[C@H](CC(C)C)NC(=O)[C@H](Cc1ccccc1)NC(C)=O)C(=O)C(=O)NC1CC1` [Jun9-24-3] gave an IC50 [1] of 460 nM.
For `COc1ccc2c(O[C@@H]3CC4C(=O)N[C@]5(C(=O)NS(=O)(=O)C6CC6)C[C@@H]5/C=C\CCCCN(C)C(=O)C4C3)cc(-c3nc(C(C)C)cs3)nc2c1C` (stereo partly drawn) [Simeprevir (24), Simeprevir], the inhibition at 20 µM [1] was greater than 60%.
With `CSCC[C@H](NC(=O)[C@H](CC(C)C)NC(=O)[C@H](CC(C)C)NC(=O)OCc1ccccc1)C(=O)C(=O)NC1CC1` [Jun8-43-3] the IC50 [1] was 2800 nM.
`CC(=O)N[C@@H](CC(C)C)C(=O)N[C@@H](CC(C)C)C(=O)N[C@@H](CCS(C)(=O)=O)C(=O)C(=O)NC1CC1` [Jun9-65-1] showed an IC50 [1] of 180 nM.
`CC(=O)N[C@@H](Cc1ccccc1)C(=O)N[C@@H](CC(C)C)C(=O)N[C@@H](CC[S+](C)[O-])C(=O)C(=O)NC1CC1` (stereo partly drawn) [Jun9-24-4] showed an IC50 [1] of 290 nM.
With `CSCC[C@@H](C=O)NC(=O)[C@H](CC(C)C)NC(=O)[C@H](CC1CCCCC1)NC(C)=O` [Jun9-66-2] (Ac-[Cha]-Leu-Met-aldehyde) the IC50 [1] was 290 nM.
Work on `CC(=O)N[C@@H](CC(C)C)C(=O)N[C@@H](CC(C)C)C(=O)N[C@H](C=O)CCS(C)(=O)=O` [Jun9-58-1] (Ac-Leu-Leu-[Met(O2)]-aldehyde) yielded an IC50 [1] of 490 nM.
Work on `CCC[C@H](NC(C)=O)C(=O)N[C@@H](CC(C)C)C(=O)N[C@@H](CCSC)C(=O)C(=O)NC1CC1` [Jun9-24-5] yielded an IC50 [1] of 640 nM.
With `CCC[C@H](NC(=O)[C@H](CC(C)C)NC(=O)OCc1ccccc1)C(=O)C(=O)NC1CC1` [Jun8-18-2] the IC50 [1] was greater than 20000 nM.
For `CCC[C@@H](C=O)NC(=O)[C@H](CC(C)C)NC(=O)[C@H](CC(C)C)NC(C)=O` [Jun9-48-3] (Ac-Leu-Leu-[Nva]-aldehyde), the IC50 [1] was 38500 nM.
For `CSCC[C@H](NC(=O)[C@H](CC1CCCCC1)NC(=O)[C@@H](NC(C)=O)C(C)(C)C)C(=O)C(=O)NC1CC1` [Jun9-66-3], the IC50 [1] was 1520 nM.
`CSCC[C@H](NC(=O)[C@H](CC(C)C)NC(=O)[C@H](CC(C)C)NC(C)=O)C(=O)C(=O)NC1CC1` [Jun9-11-3] was tested, and the IC50 [1] was 540 nM.
For `CC(C)C[C@@H](C=O)NC(=O)[C@@H](NS(=O)(=O)c1ccc(F)cc1)C(C)C` [Calpain inhibitor VI (58), Calpain inhibitor VI], the “2019-nCoV 3CL TSA Tm” value [2] was 55.46 ± 0.14 °C and the “2019-nCoV 3CL TSA ΔTm” value [2] was −0.28 °C.
Work on `CC(C)C[C@@H](C=O)NC(=O)[C@H](CC(C)C)NC(=O)[C@H](CC(C)C)NC(=O)OCc1ccccc1` [MG-132 (43), MG-132] (Cbz-Leu-Leu-Leu-aldehyde) yielded an inhibition at 20 µM [1] greater than 60%.
`CSCC[C@@H](C=O)NC(=O)[C@H](CC(C)C)NC(=O)[C@H](CC(C)C)NC(C)=O` [Calpain inhibitor II (61), Calpain inhibitor II] (Ac-Leu-Leu-Met-aldehyde) was tested, and the “2019-nCoV 3CL TSA Tm” value [2] was 62.93 ± 0.14 °C and the “2019-nCoV 3CL TSA ΔTm” value [2] was 6.65 °C.
For `CSCC[C@H](NC(=O)[C@H](CC(C)C)NC(=O)CNC(=O)OCc1ccccc1)C(=O)C(=O)NC1CC1` [Jun9-47-4], the IC50 [1] was 1200 nM.
In the case of `CCC[C@H](NC(=O)[C@H](CC(C)C)NC(=O)[C@@H](NC(=O)OCc1ccccc1)C(C)C)C(=O)C(=O)NC1CC1` [Jun8-29-2], the IC50 [1] is reported as 480 nM.
`CSCC[C@H](NC(=O)[C@H](CC(C)C)NC(=O)[C@H](CC(C)C)NC(C)=O)C(=O)C(=O)NCc1ccccc1` [Jun9-11-5] was tested, and the IC50 [1] was 1770 nM.
For `CC(=O)N[C@@H](Cc1ccccc1)C(=O)N[C@@H](CC(C)C)C(=O)N[C@@H](CCS(C)(=O)=O)C(=O)C(=O)NC1CC1` [Jun9-56-3], the IC50 [1] was 140 nM.
`CCC[C@H](NC(=O)[C@H](CC(C)C)NC(=O)[C@H](Cc1ccccc1)NC(=O)OCc1ccccc1)C(=O)C(=O)NC1CC1` [Jun8-29-4] was tested, and the IC50 [1] was 480 nM.
Compound `CSCC[C@@H](C=O)NC(=O)[C@H](CC(C)C)NC(=O)[C@H](CC(C)C)NC(=O)OC(C)(C)C` [Jun9-2-4] (Boc-Leu-Leu-Met-aldehyde) has an IC50 [1] of 390 nM.
With `CCC[C@H](NC(=O)[C@H](CC(C)C)NC(=O)[C@H](CC(C)C)NC(=O)OCc1ccccc1)C(=O)C(=O)NC1CC1` [Jun8-18-4] the IC50 [1] was 340 nM.
In the case of `CSCC[C@@H](C=O)NC(=O)[C@H](CC(C)C)NC(=O)[C@H](CC(C)C)NC(=O)OCc1ccccc1` [Jun8-61-4] (Cbz-Leu-Leu-Met-aldehyde), the IC50 [1] is reported as 110 nM.
For `CCC[C@@H](C=O)NC(=O)[C@H](CC(C)C)NC(=O)[C@H](CC(C)C)NC(=O)OCc1ccccc1` [MG-115 (60), MG-115] (Cbz-Leu-Leu-[Nva]-aldehyde), the “2019-nCoV 3CL TSA Tm” value [2] was 60.51 ± 0.28 °C and the “2019-nCoV 3CL TSA ΔTm” value [2] was 4.77 °C.
`CC(=O)N[C@@H](CC1CCCCC1)C(=O)N[C@@H](CC(C)C)C(=O)N[C@@H](CCS(C)(=O)=O)C(=O)C(=O)NC1CC1` [Jun9-82-2] was tested, and the IC50 [1] was 100 nM.
`CSCC[C@@H](C=O)NC(=O)[C@H](CC(C)C)NC(=O)OCc1ccccc1` [Jun8-102-2] (Cbz-Leu-Met-aldehyde) was tested, and the IC50 [1] was 910 nM.
`CSCC[C@H](NC(=O)[C@H](CC(C)C)NC(=O)[C@H](CC(C)C)NC(C)=O)C(=O)C(=O)NC(C)C` [Jun9-11-4] was tested, and the IC50 [1] was 5990 nM.
`CC(C)(C)NC(=O)N[C@H](C(=O)N1C[C@H]2[C@@H]([C@H]1C(=O)NC(CC1CCC1)C(=O)C(N)=O)C2(C)C)C(C)(C)C` (stereo partly drawn) [Boceprevir (28), Boceprevir] was tested, and the “2019-nCoV 3CL TSA Tm” value [2] was 62.41 ± 0.21/6.67 °C and the inhibition at 20 µM [1] was greater than 60%.
In the case of `CC(=O)N[C@@H](CC1CCCCC1)C(=O)N[C@@H](CC(C)C)C(=O)N[C@@H](CC[S+](C)[O-])C(=O)C(=O)NC1CC1` (stereo partly drawn) [Jun9-87-4], the IC50 [1] is reported as 270 nM.
With `CCC[C@@H](C=O)NC(=O)[C@H](CC(C)C)NC(=O)CNC(=O)OCc1ccccc1` [Jun9-52-3] (Cbz-Gly-Leu-[Nva]-aldehyde) the IC50 [1] was greater than 20000 nM.
For `CC(C)C[C@H](NC(=O)CNC(=O)OCc1ccccc1)C(=O)N[C@@H](CCS(C)(=O)=O)C(=O)C(=O)NC1CC1` [Jun9-56-2], the IC50 [1] was 130 nM.
Work on `CSCC[C@H](NC(=O)[C@H](CC(C)C)NC(=O)[C@H](CC1CCCCC1)NC(C)=O)C(=O)C(=O)NC1CC1` [Jun9-66-4] yielded an IC50 [1] of 220 nM.
Compound `CCC[C@H](NC(=O)[C@H](CC(C)C)NC(=O)[C@H](CC(C)C)NC(C)=O)C(=O)C(=O)NC1CC1` [Jun9-49-1] has an IC50 [1] of 5890 nM.
`CCC[C@H](NC(=O)[C@H](CC(C)C)NC(=O)CNC(=O)OCc1ccccc1)C(=O)C(=O)NC1CC1` [Jun9-52-4] was tested, and the IC50 [1] was 17700 nM.
`CSCC[C@@H](C=O)NC(=O)[C@H](CC1CCCCC1)NC(=O)[C@@H](NC(C)=O)C(C)(C)C` [Jun9-66-1] (Ac-[Tle]-[Cha]-Met-aldehyde) was tested, and the IC50 [1] was 320 nM.
In the case of `CCCC[C@H](NC(=O)[C@@H]1[C@@H]2[C@H](CN1C(=O)[C@@H](NC(=O)NC1(CS(=O)(=O)C(C)(C)C)CCCCC1)C(C)(C)C)C2(C)C)C(=O)C(=O)NC1CC1` [Narlaprevir (29), Narlaprevir], the “2019-nCoV 3CL TSA Tm” value [2] is reported as 60.92 ± 0.14/5.18 °C and the inhibition at 20 µM [1] is reported as greater than 60%.
For `CC(=O)N[C@@H](CC(C)C)C(=O)N[C@@H](CC(C)C)C(=O)N[C@@H](CC[S+](C)[O-])C(=O)C(=O)NC1CC1` (stereo partly drawn) [Jun9-59-2], the IC50 [1] was 360 nM.
`CC(C)C[C@H](NC(=O)CNC(=O)OCc1ccccc1)C(=O)N[C@@H](CC[S+](C)[O-])C(=O)C(=O)NC1CC1` (stereo partly drawn) [Jun9-24-1] showed an IC50 [1] of 510 nM.

Reference: patent US12715896B2 (priority 2020, dated 2026)
